{"source": "paper PMC6438731", "about": "“Extrasynaptic δ‐GABAA receptors are high‐affinity muscimol receptors” (Journal of Neurochemistry, 2019)", "key": {"[1]": {"target": "T1, recombinant α4β3δ receptors (Homo sapiens, UniProt O14764+P28472+P48169)", "T1 construct": "expressed in transfected cells; host or cells: Xenopus laevis oocytes injected with cRNA", "T1 sequence (P48169 36-554)": "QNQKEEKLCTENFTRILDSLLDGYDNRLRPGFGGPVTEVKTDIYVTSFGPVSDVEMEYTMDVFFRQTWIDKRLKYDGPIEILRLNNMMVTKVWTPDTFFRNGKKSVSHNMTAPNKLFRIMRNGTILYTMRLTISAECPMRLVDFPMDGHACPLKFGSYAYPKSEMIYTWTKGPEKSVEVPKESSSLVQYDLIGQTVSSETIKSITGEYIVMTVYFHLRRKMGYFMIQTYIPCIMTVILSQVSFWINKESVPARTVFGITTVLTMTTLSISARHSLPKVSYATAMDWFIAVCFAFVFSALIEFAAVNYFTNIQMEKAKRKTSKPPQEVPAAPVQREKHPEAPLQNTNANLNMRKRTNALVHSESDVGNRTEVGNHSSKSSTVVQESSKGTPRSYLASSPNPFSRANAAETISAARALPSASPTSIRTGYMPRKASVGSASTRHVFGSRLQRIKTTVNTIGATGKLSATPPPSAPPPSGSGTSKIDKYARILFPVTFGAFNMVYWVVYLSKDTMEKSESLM", "T1 sequence (P28472 26-473)": "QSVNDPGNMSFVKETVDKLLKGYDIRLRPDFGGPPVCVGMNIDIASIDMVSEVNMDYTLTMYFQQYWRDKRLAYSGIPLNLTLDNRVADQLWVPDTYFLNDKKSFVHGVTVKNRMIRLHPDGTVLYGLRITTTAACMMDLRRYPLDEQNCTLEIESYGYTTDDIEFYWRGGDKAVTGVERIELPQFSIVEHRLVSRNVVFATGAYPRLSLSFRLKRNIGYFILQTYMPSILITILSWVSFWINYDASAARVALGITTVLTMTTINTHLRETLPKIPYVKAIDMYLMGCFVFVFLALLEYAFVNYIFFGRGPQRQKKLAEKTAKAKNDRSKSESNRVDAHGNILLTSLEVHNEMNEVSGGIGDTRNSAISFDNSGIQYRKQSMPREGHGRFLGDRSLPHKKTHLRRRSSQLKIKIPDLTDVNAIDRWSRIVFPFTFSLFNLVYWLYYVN", "T1 sequence (O14764 25-452)": "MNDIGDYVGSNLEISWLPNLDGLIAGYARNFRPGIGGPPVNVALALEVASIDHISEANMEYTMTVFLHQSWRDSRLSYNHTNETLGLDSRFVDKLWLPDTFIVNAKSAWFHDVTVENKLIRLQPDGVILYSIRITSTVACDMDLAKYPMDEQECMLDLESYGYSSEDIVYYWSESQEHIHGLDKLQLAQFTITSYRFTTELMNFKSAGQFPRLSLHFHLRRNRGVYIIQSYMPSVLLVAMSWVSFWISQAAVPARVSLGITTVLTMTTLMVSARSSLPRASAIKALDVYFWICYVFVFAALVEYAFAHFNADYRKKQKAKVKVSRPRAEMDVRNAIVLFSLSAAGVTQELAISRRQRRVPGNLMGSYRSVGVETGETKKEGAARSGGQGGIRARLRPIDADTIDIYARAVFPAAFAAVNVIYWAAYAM", "experiment": "Muscimol currents, two electrode voltage clamp in Xenopus oocytes, α4β3δ", "type": "cell-based", "source_text": "(§1) Human α4, α6, β3, and δ cDNA clones for oocyte expression were made by PCR amplification of the coding region (NcoI site introduced with the amplifying 5′ oligonucleotide at the ATG initiation codon) and a HindIII (or SpeI) containing oligo) and cloning it into a NcoI‐HindIII (or SpeI) cut vector backbone derived from pEGFP‐N1 (Addgene 6085‐1). The entire transcribed region was confirmed by sequencing to ensure that protein sequences conform to consensus sequences found in the RefSeq database (https://www.ncbi.nlm.gov/RefSeq). Plasmids were linearized with NotI (New England Biolabs) and cRNA was transcribed, using T7 RNA polymerase (Ambion, mMESSAGE mMACHINE T7 Transcription Kit, Ambion Austin TX, USA, Cat. No. 1344). Xenopus laevis (Nasco, product number LM00531) oocytes were prepared from oocyte lobes shared by Dr. Olcese (UCLA, Anesthesiology). The oocytes were injected with 2 ng of each α6 and β3 subunit cRNA alone or together with 10 ng δ cRNA. Currents were measured 5–10 days after injection by two electrode voltage clamp using an Axoclamp 2B amplifier and pCLAMP software. Drug solutions were applied in ND96 (in mM 96 NaCl, 2 KCl, 1.8 CaCl2, 1 MgCl2, 5 HEPES pH 7.4) by gravity perfusion with bath exchange time of about 2 s. Muscimol was prepared as an aqueous 100 mM stock solution."}, "[2]": {"target": "T2, recombinant α4β3 receptors (Homo sapiens, UniProt P28472+P48169)", "T2 construct": "expressed in transfected cells; host or cells: Xenopus laevis oocytes injected with cRNA", "T2 sequence (P48169 36-554)": "as the sequence (P48169 36-554) above", "T2 sequence (P28472 26-473)": "as the sequence (P28472 26-473) above", "experiment": "Muscimol currents, two electrode voltage clamp in Xenopus oocytes, α4β3", "type": "cell-based", "settings": "α4β3‐injected oocytes, without δ", "source_text": "as §1"}, "[3]": {"tested_on": "different GABAAR subtypes", "experiment": "Affinity of muscimol compared with GABA across GABAAR subtypes", "settings": "across the board for different GABAAR subtypes"}, "[4]": {"target": "α4β3δ receptors", "design": "method as in Mortensen et al. 2010", "settings": "recombinantly expressed α4β3δ receptors, ref Mortensen et al. 2010; read-out: muscimol EC50; cited from earlier work"}, "[5]": {"target": "α6β3δ receptors", "design": "method as in Stórustovu and Ebert 2006", "settings": "recombinantly expressed α6β3δ receptors, ref Stórustovu and Ebert 2006; read-out: muscimol EC50; cited from earlier work"}, "[6]": {"target": "α4β3δ receptors", "design": "method as in Stórustovu and Ebert 2006", "settings": "recombinantly expressed α4β3δ receptors, ref Stórustovu and Ebert 2006; read-out: muscimol EC50; cited from earlier work"}, "[7]": {"tested_on": "α1βγ2 GABAARs", "design": "method as in Karim et al. 2013", "settings": "ref Karim et al. 2013; cited from earlier work"}}, "note": "Where two headings read alike, the source gives them in different places."}
{"smiles": "NCc1cc(=O)[nH]o1", "note": "[muscimol]", "values": [{"measurement": "EC50", "setting": "[1]; α4β3δ in Xenopus oocytes, estimated/approximate, read-out: EC50 of the high‐muscimol affinity (slowly deactivating) current component", "result": "1 to 2", "unit": "nM"}, {"measurement": "threshold muscimol concentration evoking currents", "setting": "[1]; α4β3δ‐injected oocytes", "result": 0.1, "unit": "nM"}, {"measurement": "threshold muscimol concentration evoking currents", "setting": "[2]", "result": "about 30 nM"}, {"measurement": "higher affinity than GABA", "setting": "[3]", "result": "100–1000 times"}, {"measurement": "EC50", "setting": "[4]", "result": 200, "unit": "nM"}, {"measurement": "EC50", "setting": "[5]", "result": 160, "unit": "nM"}, {"measurement": "EC50", "setting": "[6]", "result": 2280, "unit": "nM"}, {"measurement": "EC50", "setting": "[7]", "result": "~1000", "unit": "nM"}]}
